# Test results reported in US10836726B2, “AZO-quaternary pyridinium salts with acid-enhanced antibacterial efficacy, methods of use, methods of synthesis, and uses thereof” (priority 2016, dated 2020).
# Columns and labels:
# Type in all cases: cell-based
# [1] = system: Escherichia coli (E. coli, K12); assay: Minimum bactericidal concentration (MBC) determination by agar colony formation; details: MBC increased as pH increased
# Procedure: (§1) Azo-QPS-C16 was effective on both […] bacteria. The ability of bacteria to proliferate after exposure to Azo-QPS-C16 was characterized by adding growth medium and measuring the optical density (OD) at 600 nm every 15 minutes in pH 4.1, 5.8, and 7.9 buffer. […] However, exposure at pH 7.9 required a much higher concentration (40 μg/mL) to inhibit cell growth. […] The pH dependence of bactericidal activity of Azo-QPS-C16 in terms of minimum bactericidal concentration (MBC) was evaluated by inoculating cultures onto a Lysogeny Broth (LB) agar plate after treating the cells with a twofold dilution series of Azo-QPS-C16.
# (§2) Bacterial strains and growth conditions. […]
# (§3) In a 96-well plate, 2 μL of Azo-QPS-C16 at various concentrations in dimethyl sulfoxide (DMSO) were added to 98 μL of bacteria suspension per well for a final concentration ranging from a 2-fold dilution series between 40 to 1.25 μg/mL of Azo-QPS-C16. […] E. coli were cultured at 37° C., and the OD600 of each well was measured by a Tecan Spark microplate reader (Männedorf, Switzerland) every 15 minutes for up to 19 hours, with 30 seconds shaking before each measurement. S. mutans were grown at 37° C. with 5% CO2, and the OD600 of each well was measured periodically using a Molecular Devices (Sunnyvale, Calif.) SpectraMax M5 microplate reader. […]
# [2] = system: Streptococcus mutans (S. mutans, UA159); assay: as above; details: more effective in acidic conditions
# Description: The inventor observed similar pH-sensitive antibacterial activity of Azo-QPS-C16 towards the Gram-positive, lactic acid producing, cariogenic bacteria S. mutans.
# Bacterial strains and growth conditions. Streptococcus mutans (S. mutans, UA159) and Escherichia coli (E. coli, K12) were purchased from ATCC (American Type Culture Collection, Manassas, Va., USA). Todd Hewitt Broth (THB), and Lysogeny Broth (LB) powder and agar were purchased from BD (Becton, Dickinson and Company, Franklin Lakes, N.J., USA). Planktonic cultures were inoculated from 25% (by volume) glycerol frozen stocks stored at −80° C. E. coli cultures were grown in LB at 37° C. in a shaker-incubator. S. mutans cultures were grown in THB at 37° C. with 5% (by volume) CO2 overnight.
# as §3
# [3] = system: Escherichia coli (E. coli, K12); assay: Bacterial growth curves (OD600) after exposure in pH buffers
# Procedure: as §1, §2, §3
compound,measurement,setting,value
"C=C(C)C(=O)Oc1ccc(/N=N/c2cc[n+](CCCCCCCCCCCCCCCC)cc2)cc1.[Br-] [Azo-QPS-C16, (E)-1-hexadecyl-4-((4-(methacryloyloxy)phenyl)diazenyl)-pyridinium bromide]",difference in MBC between pH 4.1 and pH 7.9,[1],16 fold
same,MBC-based effectiveness in acidic versus mildly basic conditions,[2],8 fold
same,concentration that fully inhibited E. coli growth up to 19 hours,"[3]; exposure at pH 4.1, 45 min treatment, OD 600 nm",2.5 µg/mL
same,concentration required to inhibit cell growth,"[3]; exposure at pH 7.9, E. coli",40 µg/mL
